Experimental data from paper PMC7467159, “Anaerobic fixed-target serial crystallography” (IUCrJ, 2020).

Assays:
[1] = target: T1, VioC (Streptomyces vinaceus, UniProt Q6WZB0); experiment: room-temperature serial crystallography; assay type: binding; conditions: Fe(II)
T1 construct: codon-optimized, pNIC28-Bsa4, E. coli T7 LysY; His-tag cleaved with TEV protease; SEC purified; Fe(II) enzyme, microcrystals

[2] = target: T2, IPNS (Aspergillus nidulans, UniProt P05326); experiment: room-temperature serial crystallography; assay type: binding; conditions: anaerobic, Fe(II); cysteinyl sulfur ligates Fe
T2 construct: gene ipnA; recombinant, purified as in Roach et al; Fe(II) enzyme, microcrystals
T2 sequence (P05326 1-331): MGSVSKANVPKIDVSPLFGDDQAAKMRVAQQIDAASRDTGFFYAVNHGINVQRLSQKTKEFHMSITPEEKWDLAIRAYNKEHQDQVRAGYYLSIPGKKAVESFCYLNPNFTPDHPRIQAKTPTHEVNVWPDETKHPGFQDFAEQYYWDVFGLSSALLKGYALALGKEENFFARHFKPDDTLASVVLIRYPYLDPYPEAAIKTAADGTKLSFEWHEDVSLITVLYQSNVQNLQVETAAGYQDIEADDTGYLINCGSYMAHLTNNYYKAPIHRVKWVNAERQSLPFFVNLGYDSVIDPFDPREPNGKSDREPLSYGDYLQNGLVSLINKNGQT

T1 sequence (Q6WZB0 whole entry): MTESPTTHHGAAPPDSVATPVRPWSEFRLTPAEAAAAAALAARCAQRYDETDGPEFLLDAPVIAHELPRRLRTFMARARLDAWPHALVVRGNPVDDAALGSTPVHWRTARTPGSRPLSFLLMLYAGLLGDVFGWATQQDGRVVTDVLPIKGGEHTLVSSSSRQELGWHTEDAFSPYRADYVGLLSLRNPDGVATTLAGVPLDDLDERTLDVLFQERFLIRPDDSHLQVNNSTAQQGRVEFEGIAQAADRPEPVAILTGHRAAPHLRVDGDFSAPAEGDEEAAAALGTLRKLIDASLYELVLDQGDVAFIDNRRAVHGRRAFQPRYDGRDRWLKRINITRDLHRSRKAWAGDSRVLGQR

O=C(O)CCC(=O)C(=O)O [2OG]
room-temperature serial crystallography ([1]; anaerobic, L-arginine, bidentate to Fe): the 2OG ligates the Fe in a bidentate manner via its oxalyl group

N=C(N)NCC[C@H](O)[C@H](N)C(=O)O [(3S)-OH-Arg]
room-temperature serial crystallography ([1]; formed in crystallo after 1 h air exposure, succinate, active site): the (3S)-OH-Arg is positioned to coordinate Fe via its (3S)-hydroxyl group

CC(C)[C@@H](NC(=O)[C@H](CS)NC(=O)CCC[C@H](N)C(=O)O)C(=O)O [ACV]
room-temperature serial crystallography [2]: completed by a water molecule and the cysteinyl sulfur of the substrate ACV

N=C(N)NCCC[C@H](N)C(=O)O [L-arginine]
room-temperature serial crystallography ([1]; anaerobic, 2OG, active site): VioC:Fe:2OG:Arg substrate complex structure reported in this study (PDB entry 6y0n)

O=C(O)CCC(=O)O [succinate]
room-temperature serial crystallography ([1]; formed in crystallo after 1 h air exposure, (3S)-OH-Arg, monodentate to Fe): succinate is bound in a monodentate manner, also trans to His168
